Tested on: K98450-129-R-PDC complex spheroid growth, percent test/control
Test: Anticancer human tumor K98450-129-R-PDC patient-derived colon adenocarcinoma cell line growth inhibition [RAS]
Conditions: for IC50: curve of first compound; for viability, T/C: stronger effect = lower value
Method in brief: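 Agents were tested in combination matrices in half-log decrements from a top concentration at or near clinical Cmax (10 microM if undetermined). Targets were multi-cell spheroids of tumour lines plus HUVEC and MSC stromal cells.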

[1] = second compound 0.000949 µM, first compound 0.0316 µM
[2] = second compound 0.000949 µM, first compound 0.1 µM
[3] = second compound 0.000949 µM, first compound 0.316 µM
[4] = second compound 0.000949 µM, first compound 1 µM
[5] = second compound 0.003 µM, first compound 0.0316 µM
[6] = second compound 0.003 µM, first compound 0.1 µM
[7] = second compound 0.003 µM, first compound 0.316 µM
[8] = second compound 0.003 µM, first compound 1 µM
[9] = second compound 0.00949 µM, first compound 0.0316 µM
[10] = second compound 0.00949 µM, first compound 0.1 µM
[11] = second compound 0.00949 µM, first compound 0.316 µM
[12] = second compound 0.00949 µM, first compound 1 µM
[13] = second compound 0.03 µM, first compound 0.0316 µM
[14] = second compound 0.03 µM, first compound 0.1 µM
[15] = second compound 0.03 µM, first compound 0.316 µM
[16] = second compound 0.03 µM, first compound 1 µM
[17] = second compound 0.0949 µM, first compound 0.0316 µM
[18] = second compound 0.0949 µM, first compound 0.1 µM
[19] = second compound 0.0949 µM, first compound 0.316 µM
[20] = second compound 0.0949 µM, first compound 1 µM
[21] = second compound 0.3 µM, first compound 0.0316 µM
[22] = second compound 0.3 µM, first compound 0.1 µM
[23] = second compound 0.3 µM, first compound 0.316 µM
[24] = second compound 0.3 µM, first compound 1 µM
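Further: spheroids exposed to agents for seven days before the viability readout.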
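Wherever viability, T/C is given: luminescence used as a proxy for viable cell amount.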

With CC(=O)OC12COC1CC(O)C1(C)C(=O)C(O)C3=C(C)C(OC(=O)C(O)C(NC(=O)OC(C)(C)C)c4ccccc4)CC(O)(C(OC(=O)c4ccccc4)C21)C3(C)C (stereo unspecified) + CCn1c(-c2cc(N3CCN(C)CC3)cnc2C(C)OC)c2c3cc(ccc31)-c1csc(n1)CC(NC(=O)C1CC1C)C(=O)N1CCCC(N1)C(=O)OCC(C)(C)C2 the IC50 (second compound 0.000949 µM) was 0.688 µM, the IC50 (second compound 0.003 µM) was 0.252 µM and the IC50 (second compound 0.00949 µM) was 0.188 µM. The IC50 (second compound 0.03 µM) was < 0.0316 µM, the IC50 (second compound 0.0949 µM) was < 0.0316 µM and the IC50 (second compound 0.3 µM) was < 0.0316 µM. It also gave a viability, T/C [1] of 101%, a viability, T/C [2] of 78.6% and a viability, T/C [3] of 66.3%. It also gave a viability, T/C [4] of 39.4%, a viability, T/C (second compound 0.000949 µM, first compound 3.16 µM) of 38.4% and a viability, T/C (second compound 0.000949 µM, first compound 10 µM) of 34%. The viability, T/C [5] was 95.8%, the viability, T/C [6] was 69.4% and the viability, T/C [7] was 46%. The viability, T/C [8] was 29.2%, the viability, T/C (second compound 0.003 µM, first compound 3.16 µM) was 32.5% and the viability, T/C (second compound 0.003 µM, first compound 10 µM) was 22.4%. The viability, T/C [9] was 64.7%, the viability, T/C [10] was 70.1% and the viability, T/C [11] was 35.6%. For the same compound, the viability, T/C [12] was 24.6%, the viability, T/C (second compound 0.00949 µM, first compound 3.16 µM) was 23.5% and the viability, T/C (second compound 0.00949 µM, first compound 10 µM) was 19.2%. It also gave a viability, T/C [13] of 44.9%, a viability, T/C [14] of 43.2% and a viability, T/C [15] of 20.9%. The viability, T/C [16] was 16.6%, the viability, T/C (second compound 0.03 µM, first compound 3.16 µM) was 15.8% and the viability, T/C (second compound 0.03 µM, first compound 10 µM) was 15.3%. It also gave a viability, T/C [17] of 17.3%, a viability, T/C [18] of 14.5% and a viability, T/C [19] of 12.4%. It also gave a viability, T/C [20] of 12.5%, a viability, T/C (second compound 0.0949 µM, first compound 3.16 µM) of 12.5% and a viability, T/C (second compound 0.0949 µM, first compound 10 µM) of 10.7%. For the same compound, the viability, T/C [21] was 11%, the viability, T/C [22] was 10.1% and the viability, T/C [23] was 11%. For the same compound, the viability, T/C [24] was 9.96%, the viability, T/C (second compound 0.3 µM, first compound 3.16 µM) was 10.9% and the viability, T/C (second compound 0.3 µM, first compound 10 µM) was 9.38%.

With CCc1c2c(nc3ccc(O)cc13)-c1cc3c(c(=O)n1C2)COC(=O)[C@]3(O)CC + CCn1c(-c2cc(N3CCN(C)CC3)cnc2C(C)OC)c2c3cc(ccc31)-c1csc(n1)CC(NC(=O)C1CC1C)C(=O)N1CCCC(N1)C(=O)OCC(C)(C)C2 the IC50 (second compound 0.000949 µM) was 0.0836 µM, the IC50 (second compound 0.003 µM) was 0.0571 µM and the IC50 (second compound 0.00949 µM) was 0.0185 µM. The IC50 (second compound 0.03 µM) was 0.00392 µM, the IC50 (second compound 0.0949 µM) was < 0.000949 µM and the IC50 (second compound 0.3 µM) was < 0.000949 µM. The viability, T/C (second compound 0.000949 µM, first compound 0.000949 µM) was 105%, the viability, T/C (second compound 0.000949 µM, first compound 0.003 µM) was 89.6% and the viability, T/C (second compound 0.000949 µM, first compound 0.00949 µM) was 81.6%. For the same compound, the viability, T/C (second compound 0.000949 µM, first compound 0.03 µM) was 52.6%, the viability, T/C (second compound 0.000949 µM, first compound 0.0949 µM) was 53.1% and the viability, T/C (second compound 0.000949 µM, first compound 0.3 µM) was 44.3%. It also gave a viability, T/C (second compound 0.003 µM, first compound 0.000949 µM) of 91.6%, a viability, T/C (second compound 0.003 µM, first compound 0.003 µM) of 75.3% and a viability, T/C (second compound 0.003 µM, first compound 0.00949 µM) of 76%. The viability, T/C (second compound 0.003 µM, first compound 0.03 µM) was 54.7%, the viability, T/C (second compound 0.003 µM, first compound 0.0949 µM) was 43.8% and the viability, T/C (second compound 0.003 µM, first compound 0.3 µM) was 36.4%. The viability, T/C (second compound 0.00949 µM, first compound 0.000949 µM) was 69.5%, the viability, T/C (second compound 0.00949 µM, first compound 0.003 µM) was 56.6% and the viability, T/C (second compound 0.00949 µM, first compound 0.00949 µM) was 66.7%. For the same compound, the viability, T/C (second compound 0.00949 µM, first compound 0.03 µM) was 39.6%, the viability, T/C (second compound 0.00949 µM, first compound 0.0949 µM) was 29.3% and the viability, T/C (second compound 0.00949 µM, first compound 0.3 µM) was 22.5%. The viability, T/C (second compound 0.03 µM, first compound 0.000949 µM) was 53.4%, the viability, T/C (second compound 0.03 µM, first compound 0.003 µM) was 52.8% and the viability, T/C (second compound 0.03 µM, first compound 0.00949 µM) was 43.3%. It also gave a viability, T/C (second compound 0.03 µM, first compound 0.03 µM) of 24.7%, a viability, T/C (second compound 0.03 µM, first compound 0.0949 µM) of 22.8% and a viability, T/C (second compound 0.03 µM, first compound 0.3 µM) of 13.9%. For the same compound, the viability, T/C (second compound 0.0949 µM, first compound 0.000949 µM) was 19.6%, the viability, T/C (second compound 0.0949 µM, first compound 0.003 µM) was 24.4% and the viability, T/C (second compound 0.0949 µM, first compound 0.00949 µM) was 17.5%. The viability, T/C (second compound 0.0949 µM, first compound 0.03 µM) was 12.3%, the viability, T/C (second compound 0.0949 µM, first compound 0.0949 µM) was 13.2% and the viability, T/C (second compound 0.0949 µM, first compound 0.3 µM) was 9.33%. It also gave a viability, T/C (second compound 0.3 µM, first compound 0.000949 µM) of 12.4%, a viability, T/C (second compound 0.3 µM, first compound 0.003 µM) of 15.5% and a viability, T/C (second compound 0.3 µM, first compound 0.00949 µM) of 11.4%. The viability, T/C (second compound 0.3 µM, first compound 0.03 µM) was 10.8%, the viability, T/C (second compound 0.3 µM, first compound 0.0949 µM) was 10.3% and the viability, T/C (second compound 0.3 µM, first compound 0.3 µM) was 6.55%.

Nc1ccn(C2OC(CO)C(O)C2(F)F)c(=O)n1 (stereo unspecified) + CCn1c(-c2cc(N3CCN(C)CC3)cnc2C(C)OC)c2c3cc(ccc31)-c1csc(n1)CC(NC(=O)C1CC1C)C(=O)N1CCCC(N1)C(=O)OCC(C)(C)C2 gave an IC50 (second compound 0.000949 µM) of 0.254 µM, an IC50 (second compound 0.003 µM) of 0.133 µM and an IC50 (second compound 0.00949 µM) of 0.0264 µM. The IC50 (second compound 0.03 µM) was < 0.00316 µM, the IC50 (second compound 0.0949 µM) was < 0.00316 µM and the IC50 (second compound 0.3 µM) was < 0.00316 µM. The viability, T/C (second compound 0.000949 µM, first compound 0.00316 µM) was 93.1%, the viability, T/C (second compound 0.000949 µM, first compound 0.01 µM) was 82.9% and the viability, T/C [1] was 80.5%. The viability, T/C [2] was 56.4%, the viability, T/C [3] was 50.5% and the viability, T/C [4] was 37.6%. For the same compound, the viability, T/C (second compound 0.003 µM, first compound 0.00316 µM) was 98.1%, the viability, T/C (second compound 0.003 µM, first compound 0.01 µM) was 80.1% and the viability, T/C [5] was 62.3%. For the same compound, the viability, T/C [6] was 52.8%, the viability, T/C [7] was 44.4% and the viability, T/C [8] was 37.3%. The viability, T/C (second compound 0.00949 µM, first compound 0.00316 µM) was 77%, the viability, T/C (second compound 0.00949 µM, first compound 0.01 µM) was 62.2% and the viability, T/C [9] was 49.2%. The viability, T/C [10] was 33.2%, the viability, T/C [11] was 30% and the viability, T/C [12] was 23.8%. The viability, T/C (second compound 0.03 µM, first compound 0.00316 µM) was 43.4%, the viability, T/C (second compound 0.03 µM, first compound 0.01 µM) was 45.9% and the viability, T/C [13] was 33.5%. It also gave a viability, T/C [14] of 23.1%, a viability, T/C [15] of 20.7% and a viability, T/C [16] of 15.2%. The viability, T/C (second compound 0.0949 µM, first compound 0.00316 µM) was 21.1%, the viability, T/C (second compound 0.0949 µM, first compound 0.01 µM) was 21.4% and the viability, T/C [17] was 14.4%. It also gave a viability, T/C [18] of 11.9%, a viability, T/C [19] of 14.8% and a viability, T/C [20] of 11.5%. It also gave a viability, T/C (second compound 0.3 µM, first compound 0.00316 µM) of 9.67%, a viability, T/C (second compound 0.3 µM, first compound 0.01 µM) of 13.7% and a viability, T/C [21] of 12.9%. It also gave a viability, T/C [22] of 11.4%, a viability, T/C [23] of 10.9% and a viability, T/C [24] of 9.09%.

Source: PubChem BioAssay AID2060891 (Molecular Pharmacology Branch, DTP, NCI, 2025)
